One data set concerns MCF-7 (breast cancer). Description: MTT cytotoxicity assay, MCF-7. The data set is classed as cell-based, human.
The test system of data set [1] is A549 (human lung carcinoma). The experiment in a line: MTT cytotoxicity assay, A549. Format: cell-based. The settings on record: 48 h; for IC50: MTT.
Procedure: (§2) All cell lines were cultured in Roswell Park Memorial Institute 1640 culture media supplemented with 10% fetal bovine serum and incubated at 37°C in a 5% CO2 incubator. The IC50 values in Table 1 were measured by MTT assay according to our previous report [16].
(§3) The cell viability was obtained by the MTT assay.
Data set [2] relates to HeLa (human cervical cancer). Description: MTT cytotoxicity assay, HeLa. The data set is classed as cell-based. The settings on record: 48 h.
Procedure: as §2, §3
In data set [3] the test system is HepG2 (human hepatocellular carcinoma). The experiment in a line: MTT cytotoxicity assay, HepG2. The data set is classed as cell-based.
Procedure: as §2, §3
The subject of data set [4] is BEAS-2B (immortalized human bronchial epithelial cells). Description: MTT cytotoxicity assay, normal BEAS-2B. Format: cell-based. The settings on record: 48 h.
Procedure: as §2, §3
The subject of data set [5] is A549 cells. The experiment in a line: Intracellular ROS level, DCFH-DA flow cytometry. The data set is classed as cell-based, human. The settings on record: 20 μM, 12 h. Here is the method: The mitochondrial membrane potential (MMP) of A549 cells was analyzed by using an inverted fluorescence microscope and flow cytometry. […] For microscope observation, the collected cells were incubated in complete medium containing JC-1 (10 μg/mL) for 30 min and washed with PBS twice and then imaged by an inverted fluorescence microscope (Nikon, Japan). For flow cytometry analysis, the cells were trypsinized and washed twice with PBS and then incubated in 500 μL PBS containing JC-1 (10 μg/mL) for 30 min at 37°C. The cells were analyzed by flow cytometer immediately. The intracellular ROS level of A549 cells was detected after DCFH-DA stain, as illustrated in our new publication.
Increasing intracellular ROS levels can trigger cell apoptosis. […] To explore the roles of ROS in Ru(II) complex-induced cell apoptosis, we detected intracellular ROS levels by using an inverted fluorescence microscope and flow cytometry after staining A549 cells with DCFH-DA fluorescent dye.

The nature of data set [6]: Stability towards GSH and BSA by UV-Vis absorption. The data set is classed as physicochemical. The settings on record: 12 h, 37 °C, PBS buffer (pH 7.4). Here is the method: Investigating the hydrolysis in the presence of biorelevant molecules is very important to assess the chemical stability and biological activities of these title complexes.
Figure S8. UV/vis absorption of Ru-1 in the absence and presence of (A) GSH or (B) BSA. All spectra were acquired 12 h after GSH or BSA addition at 37 °C in PBS buffer (pH 7.4).
Figure S9. UV/vis absorption of Ru-2 in the absence and presence of (A) GSH or (B) BSA. All spectra were acquired 12 h after GSH or BSA addition at 37 °C in PBS buffer (pH 7.4).

In data set [7] the test system is A549 cells. The experiment in a line: Annexin V-FITC/PI apoptosis flow cytometry. The data set is classed as cell-based, human. The settings on record: 24 h. Here is the method:
(§1) First, A549 cells were incubated in six-well plates for 12 h and then exposed to Ru(II) complexes for 24 h. After incubation, cell nuclei were stained with Hoechst 33342 (5 μg/mL) for 10 min, washed twice with PBS, and then photographed using an inverted fluorescence microscope. […] The suspension was stained with 5 μL Annexin V-FITC and 10 μL PI at room temperature for 15 min and then analyzed using the flow cytometer.

Data set [8] relates to A549 cells. The experiment in a line: Hoechst 33342 nuclear staining. Format: cell-based, human. The settings on record: 20 μΜ, 24 h. How it is done: as §1
Data set [9] has as its system A549 cells. The experiment in a line: Cellular uptake and subcellular distribution by ICP-MS. Format: cell-based, human. Here is the method: A549 cells were seeded into six-well plates (5.0 × 10^5 cells per well) and grown overnight at 37°C in a 5% CO2 incubator. The cells were incubated with the different concentrations (5, 10, 15, and 20 μM) of Ru(II) complexes for different time intervals (1, 3, and 6 h). After the incubation, the cells were harvested and washed twice with PBS. Cell Mitochondria Isolation Kit was used to extract the nuclear, mitochondrial, and cytoplasmic fractions of the A549 cells. The pellets were digested with 3 mL concentrated nitric acid and 1 mL perhydrol for 24 h and then diluted to 5 mL with ultrapure water. Finally, ICP-MS was used to determine the amount of Ru(II) complexes uptaken by A549 cells.
It is generally acknowledged that the cellular uptake feature of transition metal-based compounds is an essential factor for their biological activities. As repeatedly reported by previous ruthenium complex-related studies, the more cellular uptake results in higher cytotoxicity. The cellular ruthenium concentration was determined by using ICP-MS after 1, 3, and 6 h of exposure to 5, 10, 15, and 20 μM Ru(II) complexes (Figure 2), respectively, and the results were reported as ng of ruthenium per 10^6 cell number.

Data set [10] has as its system A549 cells. The experiment in a line: Comet assay (single-cell gel electrophoresis), DNA damage. Format: cell-based, human. The settings on record: 10 μM, 12 h. Here is the method:
Single-cell gel electrophoresis was performed to detect DNA damage, as previously described. Comet assay was performed according to the manufacturer's instructions. DNA was stained with SYBR Green I (Trevigen) and imaged under an inverted fluorescence microscope.
Excessive intracellular ROS can activate DNA damaged sensor proteins and lead to DNA damage, an essential hallmark of cell apoptosis. Indeed, the DNA damage effect has been observed in many previously developed Ru(II) complexes. To determine whether or not these complexes can induce DNA damage, the single-cell gel electrophoresis assay (comet assay) was conducted in our study. […] Also, the comet assay (DNA fragments appearance) could serve as a mark for apoptosis assessment. As shown in Figure 6(a), in the control group, there was no comet-like cell observed. […] Increasing the concentration to 20 μM recorded markedly higher levels of comet tails, showing that more DNA fragmentation has occurred.

A short description of data set [11]: Solution stability by UV-Vis absorption in water and CH3CN. The data set is classed as physicochemical. The settings on record: 298 K, over 24 h, 20 μM. How it is done:
(N-N = dip, dmp) and salicylic acid in the presence of sodium hydroxide. The crude product was purified by chromatography over alumina. The obtained compounds were analyzed by elemental analysis, ESI-MS, ^1H NMR, FTIR, and UV-Vis absorption spectroscopy, and the results were shown in Figures S1–S7 in Supplementary Materials. […] In the UV-visible spectral regions, both complexes consist of two well-resolved absorption bands. In the visible region, these two complexes present a strong MLCT transition at 500–600 nm attributed to the overlap Ru(dπ)-dip or dmp (π^∗) and Ru(dπ)-SA (π^∗). The intense band occurring between 250 nm and 300 nm is attributed to an intra-ligand (IL) π-π^∗ transition by comparing with the spectra of other Ru(II)-polypyridyl complexes.

Procedure for MCF-7 (breast cancer): as §2, §3

In the case of `O=C(O)c1ccccc1O` [SA, salicylic acid], the IC50 was greater than 200 µM in the data set on MCF-7 (breast cancer) (Homo sapiens, MCF7, 48 h); greater than 200 µM in data set [1] (Homo sapiens, A549); greater than 200 µM in data set [2] (Homo sapiens, HeLa); greater than 200 µM in data set [3] (Homo sapiens, HepG2, 48 h).
`[Cl-].[Cl-].[Ru+2].c1ccc(-c2ccnc3c2ccc2c(-c4ccccc4)ccnc23)cc1.c1ccc(-c2ccnc3c2ccc2c(-c4ccccc4)ccnc23)cc1` [Ru(dip)2Cl2, cis-[Ru(dip)2Cl2]]: the IC50 amounted to 135 ± 7.9 µM in the data set with MCF-7 (breast cancer) (48 h), 138 ± 6.7 µM in [1], 116 ± 6.8 µM in [2] and 108 ± 5.4 µM in data set [3] (48 h).
Consider `N.N.[Cl][Pt][Cl]` [Cisplatin], for which the concentration for half-maximal inhibition (IC50) in the data set with MCF-7 (breast cancer) (48 h) was 16.2 ± 2 µM; in [1] it was 27.2 ± 1.4 µM; in data set [2] it was 18.3 ± 1.2 µM; in data set [4] it was 21.4 ± 1.5 µM; in data set [3] (48 h), 30.2 ± 2 µM. The “SI (selectivity index) = IC50 (BEAS-2B)/IC50 (A549)” value in [1] came to 0.8.
For the compound `Cc1ccc2ccc3ccc(C)nc3c2n1.Cc1ccc2ccc3ccc(C)nc3c2n1.O=C1[O][Ru][O]c2ccccc21` [Ru-2, [Ru(dmp)2(SA)]], the IC50 in the data set on MCF-7 (breast cancer) (48 h) was 45.7 ± 3.7 µM; in [1], 30.1 ± 1.2 µM; in data set [2] it was 32.5 ± 2.4 µM; in data set [4], 48.1 ± 3.7 µM; in [3] (48 h) it was 26.4 ± 2.1 µM. Further, the “MFI higher than the control group” value in the data set with A549 cells [5] is given as roughly 1.9 fold. For the same compound, in [6], the “change in characteristic absorption with excessive GSH or BSA (stability)” value is “no significant change”. The “early apoptotic cells (I4)” value with A549 cells [7] (5 μM) stood at 2.79%; in the data set with A549 cells [7] (10 μM) it was 15.83%; in the data set with A549 cells [7] (20 μM), 15.47%. Moreover, the “late apoptotic/necrotic cells (I2)” value with A549 cells [7] (5 μM) worked out at 0.00%; in the data set on A549 cells [7] (20 μM), 10.19%. The “apoptotic features, Hoechst 33342 staining” value with A549 cells [8] was “chromatin condensation, nuclear fragmentation, and plasma membrane blebbing”. For the same compound, the “Intracellular content of Ru” value in the data set with A549 cells [9] (5 μM, 1 h) is 85.4 ± 9.3 ng Ru/10^6 A549 cell number; with A549 cells [9] (5 μM, 3 h), 112.4±9.5 ng Ru/10^6 A549 cell number; with A549 cells [9] (5 μM, 6 h), 142.5±9.6 ng Ru/10^6 A549 cell number; in the data set with A549 cells [9] (10 μM, 1 h), 99.4±9.6 ng Ru/10^6 A549 cell number; with A549 cells [9] (10 μM, 3 h) it was 134.6±8.3 ng Ru/10^6 A549 cell number; in the data set on A549 cells [9] (10 μM, 6 h) it was 173.2±8.9 ng Ru/10^6 A549 cell number. Moreover, the “Intracellular content of Ru” value is 115.8±11.7 ng Ru/10^6 A549 cell number in the data set with A549 cells [9] (15 μM, 1 h); 159.4±8.5 ng Ru/10^6 A549 cell number in the data set with A549 cells [9] (15 μM, 3 h); 204.6±8.9 ng Ru/10^6 A549 cell number in the data set on A549 cells [9] (15 μM, 6 h); 138.7±15.3 ng Ru/10^6 A549 cell number with A549 cells [9] (20 μM, 1 h); 181.3±9.3 ng Ru/10^6 A549 cell number with A549 cells [9] (20 μM, 3 h); 235.2 ± 16.6 ng Ru/10^6 A549 cell number in the data set on A549 cells [9] (20 μM, 6 h). For the same compound, in the data set with A549 cells [10], the “DNA fragmentation, comet assay” value is recorded as “well-formed comet tails”. For the same compound, in data set [11], the “change in UV-Vis absorption spectra (solution stability)” value is listed as “no significant change”.
For the compound `Cc1ccc2ccc3ccc(C)nc3c2n1.Cc1ccc2ccc3ccc(C)nc3c2n1.[Cl-].[Cl-].[Ru+2]` [Ru(dmp)2Cl2, cis-[Ru(dmp)2Cl2]], the IC50 with MCF-7 (breast cancer) (48 h) is greater than 200 µM; in [1], greater than 200 µM; in [2], greater than 200 µM; in [3] (48 h) it was 169 ± 6.2 µM.
